Test results: patent US20080214606A1, “Methods for the Identification and Use of Compounds Suitable for the Treatment of Drug Resistant Cancer Cells” (The Government of the United States of America as …, priority 2004, published 2008)

molecular target: ABCB1 (Homo sapiens, UniProt P08183); test: Correlation of ABCB1 expression with drug sensitivity across the NCI-60; details: not given
Protocol: Expression levels are measured by real-time quantitative RT-PCR using the LightCycler RNA Amplification SYBR Green kit and a LightCycler machine (Roche Biochemicals, Indianapolis, Ind.). Specific oligonucleotide probes are designed for each of the ABC transporters using DNAStar Primer Select (DNASTAR Inc.), and they may be synthesized at Lofstrand Laboratories (Gaithersburg, Md.). When possible, the amplicons are designed to encompass exon-intron boundaries to avoid amplification of genomic DNA. Since the Syber Green assay detects accumulation of double stranded DNA, primers are selected (from a battery consisting of about 200 primers) that amplified a single product of the correct size.
RT-PCR is carried out on 150 ng total RNA, in the presence of 250 nM specific primers. Following reverse transcription (20 min at 50° C.), the PCR reaction consists of 45 cycles of denaturation (15 sec at 95° C.), annealing (30 sec at 58° C.), and elongation (30 sec at 72° C.). No-template (water) reaction mixtures are prepared as negative controls.
During PCR amplification, fluorescence emission is measured and recorded in real time by the LightCycler. Crossing point values are calculated, using the LightCycler software package, by the Fit Points analysis method, with baseline fluorescence set at 1. The SyberGreen assay measures accumulation of double-stranded products, and the appearance of primer dimers limits quantitation at high cycle numbers. […] The raw results are expressed as number of cycles to reach the crossing point. If the desired product is not detected, the corresponding value is adjusted to crossing points indicating no expression. To assess the contribution of experimental artifacts, selected cell lines are assessed in replicate.
Both sets are available at http://discover.nci.nih.gov. The two are combined to form a joint dataset that includes 1429 compounds.
To determine quantitatively how well the 47 genes cluster the cell lines by their tissues of origin, a statistical method is employed wherein the kappa statistic is used to indicate how well the observed clusters correspond to the nine tissue-of-origin classifications. […] To control the overall false type 1 error rate, both a step-down procedure (Westfall and Young, 1993, Resampling-Based Multiple Testing: Examples and Methods for p-value Adjustment (New York: Wiley)) and a step-up procedure (Reiner et al., 2003, Bioinformatics 19:368-375) were employed to adjust for multiple testing of all 47 genes simultaneously. In the Benjamini-Hochberg procedure the p-values are computed in the standard way by permutation, assuming that all distributions are exchangeable: the number of values in the permuted data with correlations over a threshold, divided by the number of compounds and by the number of permutations. In this analysis, the False Discovery Rate (q-value) at which each compound would be declared was calculated using the step-up procedure for positively correlated test statistics (again true because all correlations being compared are computed against the same ABC gene): in this procedure the first q-value for the largest correlation is the Bonferroni-corrected p-value for that gene; then further q-values are calculated as qj=max(pj*1429/j, qj-1). This procedure limits the expected proportion of false positives in the list 1, . . . , j to at most qj.

ABCB1, sequence (P08183 whole entry): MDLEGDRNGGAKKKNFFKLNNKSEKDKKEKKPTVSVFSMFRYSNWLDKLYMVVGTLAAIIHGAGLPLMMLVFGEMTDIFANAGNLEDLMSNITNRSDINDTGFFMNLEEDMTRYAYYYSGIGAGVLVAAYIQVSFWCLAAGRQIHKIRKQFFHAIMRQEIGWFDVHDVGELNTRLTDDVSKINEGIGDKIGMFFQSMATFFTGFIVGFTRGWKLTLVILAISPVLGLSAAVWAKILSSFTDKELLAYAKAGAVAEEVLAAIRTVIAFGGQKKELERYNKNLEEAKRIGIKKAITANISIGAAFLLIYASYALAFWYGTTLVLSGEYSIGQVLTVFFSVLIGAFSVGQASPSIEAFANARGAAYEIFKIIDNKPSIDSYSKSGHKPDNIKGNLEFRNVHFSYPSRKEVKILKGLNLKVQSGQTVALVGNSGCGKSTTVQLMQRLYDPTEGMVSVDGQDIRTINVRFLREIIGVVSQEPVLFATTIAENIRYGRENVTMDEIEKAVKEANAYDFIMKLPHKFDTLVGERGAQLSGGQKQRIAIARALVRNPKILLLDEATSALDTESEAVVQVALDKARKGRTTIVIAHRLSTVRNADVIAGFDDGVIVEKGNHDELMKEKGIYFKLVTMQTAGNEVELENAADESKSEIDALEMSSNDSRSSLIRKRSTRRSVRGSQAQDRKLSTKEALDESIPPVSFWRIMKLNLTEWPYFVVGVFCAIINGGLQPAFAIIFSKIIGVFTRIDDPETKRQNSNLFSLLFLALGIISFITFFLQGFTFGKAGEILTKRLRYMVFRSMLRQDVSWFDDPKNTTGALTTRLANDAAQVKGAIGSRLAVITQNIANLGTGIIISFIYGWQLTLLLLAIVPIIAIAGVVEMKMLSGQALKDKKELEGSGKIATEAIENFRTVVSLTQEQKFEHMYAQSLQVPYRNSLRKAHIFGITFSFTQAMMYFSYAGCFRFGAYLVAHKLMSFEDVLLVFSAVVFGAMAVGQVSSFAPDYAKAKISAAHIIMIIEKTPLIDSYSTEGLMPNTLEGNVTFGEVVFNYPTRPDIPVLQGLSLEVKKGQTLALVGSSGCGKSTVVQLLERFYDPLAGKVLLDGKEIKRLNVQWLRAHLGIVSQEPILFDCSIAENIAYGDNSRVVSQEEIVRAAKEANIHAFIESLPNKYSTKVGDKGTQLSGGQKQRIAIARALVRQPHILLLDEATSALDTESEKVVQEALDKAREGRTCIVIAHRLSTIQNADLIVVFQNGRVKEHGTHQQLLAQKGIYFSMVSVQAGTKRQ

SMILES | Pearson's Correlation Coeff | Correlation of antiproliferative activity with ABCB1 expression
CN(O)C(=O)c1ccc(OCc2cccc(Cl)c2)cc1 [NSC 692759] | 0.4149 | 
CCCCCCOc1ccc(C(=O)NO)cc1 [NSC 692754] | 0.4616 | 
NC(=O)c1[nH]nc([C@@H]2O[C@H](CO)[C@@H](O)[C@H]2O)c1O [NSC 143095] | 0.2763 | 
CCCCCCOc1ccc(C(=O)N(C)O)cc1 [NSC 692758] | 0.4825 | 
CCCOc1cc2c(cc1O)CC[C@@H]1[C@@H]2CC[C@]2(C)[C@@H](O)CC[C@@H]12 [NSC671041] | 0.2610 | 
c1cc(-c2cn3ccsc3n2)ccn1 [NSC 641288] |  | 0.3643
O=c1cc(O)ccn1[C@@H]1O[C@H](CO)[C@@H](O)[C@H]1O [NSC 126849] | 0.2357 | 
COc1ccc(O)c(/C=N/NC(=S)N2CCCCC2)c1 [NSC689529] | 0.3465 | 
O=C1C=CC(=O)c2c(O)ccc(O)c21 [NSC26647] | 0.2476 | 
CC(C)=CCC[C@@H](C)c1c2ncc[nH]c-2c(C)c(=O)c1O [NSC697135] | 0.4052 | 0.4249
O=c1cc(-c2cccc(OCc3ccccc3)c2)[nH]c2cc3c(cc12)OCO3 [NSC657279] | 0.2253 | 
O=C(CCc1nnc2s/c(=C\c3ccc4c(c3)OCO4)c(=O)n12)Nc1cc(Cl)ccc1Cl [NSC 635543] |  | 0.3514
CCc1nc(N)nc(N)c1-c1ccc2c(c1)nnn2CCc1ccccc1 [NSC382053] | 0.3841 | 
S=C(N/N=C\C=N/NC(=S)N1CCCCC1)N1CCCCC1 [NSC693323] | 0.3180 | 
CCOC(=O)NC1CC2CCC1(OC)C=C2C (centres unmarked) [NSC 617278] |  | 0.424
CCc1nc(N)nc(N)c1-c1ccc(Cl)c([N+](=O)[O-])c1 [NSC302325] | 0.2979 | 
COc1cc([C@@H]2c3[nH]c4ccccc4c3C[C@H]3COC(=O)N32)cc(OC)c1O [NSC640737] | 0.2176 | 
CC(C)=CCC[C@@H](C)C1=C(Nc2ccccc2F)C(=O)C(C)=C(O)C1=O [NSC697131] | 0.3514 | 0.3522
CCc1nc(N)nc(N)c1-c1ccc2nn(-c3ccccc3)[n+]([O-])c2c1 [NSC382054] | 0.3151 | 
NC(=O)NO [NSC32065] | 0.3336 | 
c1ccc(/C(=N/Nc2ccccn2)c2cccnn2)cc1 [NSC693623] | 0.2952 | 
O=C(O)Cc1cccc2c(=O)cc(-c3ccccc3)oc12 [NSC 347512] |  | 0.4109

same assay, conditions: set of 118 compounds with putatively known mechanisms of action, FIG. 2

SMILES | Relationship between drug sensitivity and ABCB1 expression (in words)
C(=N\NC1=NCCN1)/c1c2ccccc2c(/C=N/NC2=NCCN2)c2ccccc12 [bisantrene, reference compound] | striking inverse correlations

molecular target: T1, ABCC2 (Homo sapiens, UniProt Q92887); test: Correlation of ABCC2 expression with drug sensitivity across the NCI-60; type: cell-based; details: Pearson correlation of ABCC2 expression with sensitivity of the 60 cell lines; 1429 compounds; inverse, p < 0.0001
T1 construct: profiled in 60 diverse cancer cell lines (the NCI-60) using real-time RT-PCR; endogenous in cells; host or cells: NCI-60 human cancer cell lines
T1 sequence (Q92887 whole entry): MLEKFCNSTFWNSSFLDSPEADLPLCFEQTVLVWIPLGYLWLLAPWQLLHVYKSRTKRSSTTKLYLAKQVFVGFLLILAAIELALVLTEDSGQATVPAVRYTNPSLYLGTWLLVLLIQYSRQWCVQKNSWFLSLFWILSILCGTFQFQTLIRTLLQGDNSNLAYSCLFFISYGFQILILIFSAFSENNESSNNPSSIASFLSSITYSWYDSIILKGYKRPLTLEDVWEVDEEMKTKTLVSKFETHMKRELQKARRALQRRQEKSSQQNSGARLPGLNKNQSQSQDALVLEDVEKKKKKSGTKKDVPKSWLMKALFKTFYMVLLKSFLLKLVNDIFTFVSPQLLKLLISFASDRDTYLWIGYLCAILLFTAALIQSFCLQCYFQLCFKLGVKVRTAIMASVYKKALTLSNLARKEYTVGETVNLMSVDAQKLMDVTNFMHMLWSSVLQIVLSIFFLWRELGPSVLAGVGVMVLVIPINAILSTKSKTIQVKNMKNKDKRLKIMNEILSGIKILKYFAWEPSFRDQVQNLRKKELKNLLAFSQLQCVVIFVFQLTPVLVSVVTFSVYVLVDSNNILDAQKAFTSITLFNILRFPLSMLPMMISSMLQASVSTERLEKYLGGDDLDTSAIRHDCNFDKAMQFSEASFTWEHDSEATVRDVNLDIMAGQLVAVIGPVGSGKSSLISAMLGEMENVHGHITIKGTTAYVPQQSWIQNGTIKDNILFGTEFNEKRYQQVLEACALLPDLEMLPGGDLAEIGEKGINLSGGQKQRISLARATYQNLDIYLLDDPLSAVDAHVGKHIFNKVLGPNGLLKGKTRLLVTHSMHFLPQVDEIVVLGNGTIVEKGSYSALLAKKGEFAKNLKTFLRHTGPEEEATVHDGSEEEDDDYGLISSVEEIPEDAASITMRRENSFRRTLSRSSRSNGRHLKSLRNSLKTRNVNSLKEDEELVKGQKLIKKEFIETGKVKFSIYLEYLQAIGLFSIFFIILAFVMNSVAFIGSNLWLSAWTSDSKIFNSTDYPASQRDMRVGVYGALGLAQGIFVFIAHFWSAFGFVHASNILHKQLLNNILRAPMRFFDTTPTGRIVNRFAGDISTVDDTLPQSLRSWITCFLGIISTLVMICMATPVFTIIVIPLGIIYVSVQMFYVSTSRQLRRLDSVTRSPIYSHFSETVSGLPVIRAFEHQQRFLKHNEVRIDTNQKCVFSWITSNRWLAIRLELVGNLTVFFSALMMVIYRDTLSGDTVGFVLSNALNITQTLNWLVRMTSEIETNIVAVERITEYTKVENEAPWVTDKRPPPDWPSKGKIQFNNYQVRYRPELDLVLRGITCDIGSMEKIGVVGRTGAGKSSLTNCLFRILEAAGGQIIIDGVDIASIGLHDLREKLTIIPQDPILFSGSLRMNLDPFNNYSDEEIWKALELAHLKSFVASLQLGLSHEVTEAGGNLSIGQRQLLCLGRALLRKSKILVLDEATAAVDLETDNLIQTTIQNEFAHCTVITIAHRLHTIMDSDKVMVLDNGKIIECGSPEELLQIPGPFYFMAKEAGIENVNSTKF
Protocol: (§1) Expression levels are measured by real-time quantitative RT-PCR using the LightCycler RNA Amplification SYBR Green kit and a LightCycler machine (Roche Biochemicals, Indianapolis, Ind.). […] When possible, the amplicons are designed to encompass exon-intron boundaries to avoid amplification of genomic DNA. Since the Syber Green assay detects accumulation of double stranded DNA, primers are selected (from a battery consisting of about 200 primers) that amplified a single product of the correct size.
(§2) During PCR amplification, fluorescence emission is measured and recorded in real time by the LightCycler. Crossing point values are calculated, using the LightCycler software package, by the Fit Points analysis method, with baseline fluorescence set at 1. The SyberGreen assay measures accumulation of double-stranded products, and the appearance of primer dimers limits quantitation at high cycle numbers. The specificity of amplified products is verified by melting-curve analysis and agarose gel electrophoresis (not shown). The raw results are expressed as number of cycles to reach the crossing point. If the desired product is not detected, the corresponding value is adjusted to crossing points indicating no expression. To assess the contribution of experimental artifacts, selected cell lines are assessed in replicate.

SMILES | Correlation
COc1cccc2c1C(=O)C=CC2=O [NSC 618315] | −0.4247
CCCCCCOc1ccc(C(=O)NO)cc1 [NSC 692754] | −0.4016
CCOC(=O)c1oc2cc3c(c4c2c1-c1ccccc1N4C)C=CC(C)(C)O3 [NSC 693215] | −0.4377
CCCCCCCCCCCCCC(=O)NO [NSC 634458] | −0.4326
CC(C)Cc1ccc(C(C)/C=C2\CCC(CN3CCCCC3)C2=O)cc1.Cl (centres unmarked) [NSC 639978] | −0.5210
Cc1ccc(C2=CC(=O)/C(=C\C(=O)c3ccc(Br)cc3)O2)c(C)c1 [NSC 674919] | −0.4608
COc1cc(/C=C2\CCC(CN(C)C)C2=O)ccc1OC(=O)c1ccccc1.Cl (centres unmarked) [NSC 639518] | −0.4350
CC(C)OC(=O)c1ccc(CCC2=CC(=O)C=CC2=O)cc1 [NSC 684496] | −0.4340
CC1(C)OC2C(CO[Si](C)(C)C(C)(C)C)OC(n3cnc4c(N)nc(C#C[Si](C)(C)C)nc43)C2O1 (centres unmarked) [NSC 687496] | −0.4544
CC1=NN(c2nc(N)nc(CBr)n2)C(C)(C)C1 [NSC 696916] | −0.4224
CN(C)CCC(=O)N1C/C(=C\c2ccc(Cl)c(Cl)c2)C(=O)/C(=C/c2ccc(Cl)c(Cl)c2)C1.Cl [NSC 638645] | −0.5028
CC(C)Cc1ccc(C(C)/C=C2\CCC(CN3CCOCC3)C2=O)cc1.Cl (centres unmarked) [NSC 639976] | −0.4670
COC(=O)[C@@]12C(=O)C=CC(=O)[C@@H]1C1C(=CC2COC(C)=O)O[C@@H]2OC3(CCCCC3)O[C@H]12 (some centres unmarked) [NSC 637399] | −0.4969

molecular target: T2, ABCD1 (Homo sapiens, UniProt P33897); test: Correlation of ABCD1 expression with drug sensitivity across the NCI-60; type: cell-based; details: Pearson correlation of ABCD1 expression with sensitivity of the 60 cell lines; 1429 compounds; inverse, p < 0.0001
T2 construct: profiled in 60 diverse cancer cell lines (the NCI-60) using real-time RT-PCR; endogenous in cells; host or cells: NCI-60 human cancer cell lines
T2 sequence (P33897 whole entry): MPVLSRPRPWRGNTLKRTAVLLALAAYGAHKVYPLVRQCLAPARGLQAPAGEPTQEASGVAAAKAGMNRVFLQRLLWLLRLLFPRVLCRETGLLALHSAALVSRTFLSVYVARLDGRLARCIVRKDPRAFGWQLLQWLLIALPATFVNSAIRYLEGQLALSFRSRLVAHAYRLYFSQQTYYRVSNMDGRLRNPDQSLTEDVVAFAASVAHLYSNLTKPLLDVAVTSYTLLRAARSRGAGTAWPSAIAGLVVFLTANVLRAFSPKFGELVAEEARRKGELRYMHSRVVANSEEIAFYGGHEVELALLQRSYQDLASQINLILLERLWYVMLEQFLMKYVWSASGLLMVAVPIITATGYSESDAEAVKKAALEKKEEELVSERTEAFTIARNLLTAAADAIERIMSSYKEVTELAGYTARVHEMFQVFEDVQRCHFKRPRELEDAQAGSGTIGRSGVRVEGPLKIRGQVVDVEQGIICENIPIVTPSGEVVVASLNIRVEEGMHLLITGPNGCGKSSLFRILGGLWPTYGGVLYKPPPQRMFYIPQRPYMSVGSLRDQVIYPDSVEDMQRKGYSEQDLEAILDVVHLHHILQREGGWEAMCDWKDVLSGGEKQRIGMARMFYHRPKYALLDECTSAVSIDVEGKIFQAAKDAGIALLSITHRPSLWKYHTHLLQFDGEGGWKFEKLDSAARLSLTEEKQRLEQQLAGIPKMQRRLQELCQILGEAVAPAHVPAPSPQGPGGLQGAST
Protocol: as §1, §2

SMILES | Correlation
CCN(CC)CCNc1ccc2ncn3c4ccc(OC)cc4c(=O)c1c23 [NSC 645812] | −0.4825
CN(O)C(=O)c1ccc(OCc2cccc(Cl)c2)cc1 [NSC 692759] | −0.5034
CCCCCCOc1ccc(C(=O)NO)cc1 [NSC 692754] | −0.4680
Nc1nc(=S)c2ncn(C3CC(O)C(CO)O3)c2[nH]1 (centres unmarked) [NSC 71851] | −0.4425
COc1ccc2[nH]c3c(C)c4ccncc4c(C)c3c2c1 [NSC 69187] | −0.5711
NC(=O)c1[nH]nc([C@@H]2O[C@H](CO)[C@@H](O)[C@H]2O)c1O [NSC 143095] | −0.5337
c1ccc2c(c1)Nc1cccc3c1c-2nc1ccccc13 [NSC 670692] | −0.4001
O=C1/C(=C/c2ccc(F)cc2)CNC/C1=C\c1ccc(F)cc1 [NSC 685126] | −0.4464
CCN(CC)CCCNc1ccc2nnn3c4ccc(O)cc4c(=O)c1c23 [NSC 645814] | −0.4346
CCN(CC)CCCNc1ncc(C)c2c1c1ccc3c(O)cccc3c1n2C [NSC 653438] | −0.4252
CN(C)CCCNc1ccc2nnn3c4ccc(O)cc4c(=O)c1c23 [NSC 645830] | −0.4258
CCCCCCOc1ccc(C(=O)N(C)O)cc1 [NSC 692758] | −0.5012
Cc1c2ccncc2c(C)c2c1[nH]c1ccccc12 [NSC 71795] | −0.4642
CCN(CC)CCn1ccc(=O)c2cc3c(=O)ccn(CCN(CC)CC)c3c(C)c21 [NSC 645161] | −0.5134
COc1ccc2c(c1)-c1nn(CCCN(C)C)c3ccc([N+](=O)[O-])c(c13)N2 [NSC 627168] | −0.4599
Cc1c2ccncc2c(C)c2c1[nH]c1ccc(OCCN(C)C)cc12 [NSC 338258] | −0.5453
CN(C)CCCNc1ccc2c(=O)n(CCN(C)C)c(=O)n3c4ccccc4c(=O)c1c23 [NSC 687308] | −0.4236
COc1ccc2c(c1)c(=O)c1c(NCCCN(C)C)ccc3ncn2c31.Cl [NSC 645813] | −0.4824
O=c1cc(O)ccn1[C@@H]1O[C@H](CO)[C@@H](O)[C@H]1O [NSC 126849] | −0.4214
OCCOc1ccc(-c2cc(-c3ccccn3)nc(-c3ccccn3)c2)cc1 [NSC 640499] | −0.4694

test system: KB-V1 cells (over-express MDR1-P-gp) vs parental KB-3-1 cells; test: MTT assay using the KB-3-1/KB-V1 cell pair; type: cell-based, human; details: MTT assay with 2 μM PSC 833
Protocol: Cell survival is measured by the MTT (3-(4,5-Dimethylthiazol-2-yl)-2,5-diphenyltetrazolium) Assay. Cells are seeded in 100 μl medium at a density of 5000 cells/well in 96 well plates, and serially diluted drug (with or without 2 μM PSC 833) is added the following day in 100 μl medium to give the indicated final concentration. Cells are then incubated for 72 hrs at 37° C. in 5% CO2, and the MTT assay is performed according to the manufacturer's instructions (Molecular Probes, Eugene, Oreg.).
To test whether our approach using the NCI-60 does, in fact, identify new substrates, an MTT assay is used to test all top-scoring compounds that were available from DTP for follow-up experiments. KB-3-1, a human carcinoma cell line, and KB-V1, a multidrug resistant derivative of KB-3-1 that over-expresses MDR1-P-gp (Shen et al., 1986, J. Biol. Chem. 261:7762-7770), are used for the tests. […] This resistance of KB-V-1 cells is invariably reversible by PSC 833. The intrinsic fluorescence of one of the compounds, NSC 634791, allows for the measurement of the effect of MDR1 activity on its export from cells.

SMILES | Effect of PSC 833 on the heightened sensitivity of KB-V1 cells
NC(=S)N=Nc1c(O)[nH]c2c(Cl)cc(Cl)cc12 [NSC 73305] | completely reverses sensitivity
COc1ccc(NC(=S)N=Nc2c(O)[nH]c3c(Cl)cc(Cl)cc23)cc1 [NSC 73304] | completely reverses sensitivity

same assay, conditions: MTT assay, 72 hrs

SMILES | Sensitivity of KB-V1 cells relative to parental KB-3-1 (potentiation by ABCB1)
NC(=S)N=Nc1c(O)[nH]c2c(Cl)cc(Cl)cc12 [NSC 73305] | several-fold more sensitive
COc1ccc(NC(=S)N=Nc2c(O)[nH]c3c(Cl)cc(Cl)cc23)cc1 [NSC 73304] | several-fold more sensitive
